Reference: ChEMBL document CHEMBL1240467, “Synthesis and antibacterial activities of 6-O-methylerythromycin A 9-O-(3-aryl-2-propenyl) oxime ketolide, 2,3-enol ether, and alkylide analogues” (2010)
≈ marks a conversion by molar mass, not a printed value.

Assays:
Assay type in all cases: functional
Streptococcus pneumoniae [1] = experiment: Antibacterial activity against erythromycin-susceptible Streptococcus pneumoniae ATCC 49619 by broth microdilution method
Streptococcus pneumoniae [2] = experiment: Antibacterial activity against erythromycin-resistant Streptococcus pneumoniae PU-11 expressing erm and mef gene by broth microdilution method
Staphylococcus aureus [3] = experiment: Antibacterial activity against erythromycin-susceptible Staphylococcus aureus ATCC 29213 by broth microdilution method
Staphylococcus aureus [4] = experiment: Antibacterial activity against erythromycin-resistant Staphylococcus aureus PU-19 expressing erm(A) gene by broth microdilution method
Staphylococcus aureus [5] = experiment: Antibacterial activity against erythromycin-resistant Staphylococcus aureus PU-32 expressing erm(A) gene by broth microdilution method
Streptococcus pneumoniae [6] = experiment: Antibacterial activity against erythromycin-resistant Streptococcus pneumoniae PU-09 expressing mef gene by broth microdilution method
Streptococcus pneumoniae [7] = experiment: Antibacterial activity against erythromycin-resistant Streptococcus pneumoniae PU-27 expressing erm gene by broth microdilution method

Row | Structure (SMILES) | MIC (Streptococcus pneumoniae [1]) | MIC (Streptococcus pneumoniae [2]) | MIC (Staphylococcus aureus [3]) | MIC (Staphylococcus aureus [4]) | MIC (Staphylococcus aureus [5]) | MIC (Streptococcus pneumoniae [6]) | MIC (Streptococcus pneumoniae [7])
1 | CC[C@H]1OC(=O)[C@H](C)C(=O)[C@H](C)[C@@H](O[C@H]2O[C@H](C)C[C@H](N(C)C)[C@H]2O)[C@](C)(OC)C[C@@H](C)/C(=N\OC/C=C/c2cccnc2)[C@H](C)[C@@H]2OC(=O)O[C@]12C | 0.032 µg/mL (≈ 0.0429 µM) | 128 µg/mL (≈ 172 µM) | 0.125 µg/mL (≈ 0.168 µM) | 256 µg/mL (≈ 343 µM) | 0.125 µg/mL (≈ 0.168 µM) | – | –
2 | CC[C@H]1OC(=O)[C@H](C)C(=O)[C@H](C)[C@@H](O[C@H]2O[C@H](C)C[C@H](N(C)C)[C@H]2O)[C@](C)(OC)C[C@@H](C)/C(=N\OC/C=C/c2ccc3ncccc3c2)[C@H](C)[C@@H]2OC(=O)O[C@]12C | ≤ 0.016 µg/mL | 32 µg/mL (≈ 40.2 µM) | 0.032 µg/mL (≈ 0.0402 µM) | 64 µg/mL (≈ 80.4 µM) | ≤ 0.016 µg/mL | 0.25 µg/mL (≈ 0.314 µM) | 1 µg/mL (≈ 1.26 µM)
3 | CC[C@H]1OC(=O)[C@H](C)[C@@H](O[C@H]2C[C@@](C)(OC)[C@@H](O)[C@H](C)O2)[C@H](C)[C@@H](O[C@@H]2O[C@H](C)C[C@H](N(C)C)[C@H]2O)[C@](C)(O)C[C@@H](C)CN(C)[C@H](C)[C@@H](O)[C@]1(C)O [AZITHROMYCIN] | 0.064 µg/mL (≈ 0.0854 µM) | 128 µg/mL (≈ 171 µM) | 0.5 µg/mL (≈ 0.668 µM) | > 256 µg/mL | 64 µg/mL (≈ 85.4 µM) | – | –
4 | CC[C@H]1OC(=O)[C@H](C)C(O/C=C\Cc2cncc3ccccc23)[C@H](C)[C@@H](O[C@H]2O[C@H](C)C[C@H](N(C)C)[C@H]2O)[C@](C)(OC)C[C@@H](C)/C(=N\OC/C=C/c2cncc3ccccc23)[C@H](C)[C@@H](O)[C@]1(C)O (some centres not stated) | 16 µg/mL (≈ 17 µM) | – | 128 µg/mL (≈ 136 µM) | – | – | – | –
5 | CC[C@H]1OC(=O)[C@H](C)[C@@H](O[C@H]2C[C@@](C)(OC)[C@@H](O)[C@H](C)O2)[C@H](C)[C@@H](O[C@@H]2O[C@H](C)C[C@H](N(C)C)[C@H]2O)[C@](C)(OC)C[C@@H](C)C(=O)[C@H](C)[C@@H](O)[C@]1(C)O [CLARITHROMYCIN] | 0.032 µg/mL (≈ 0.0428 µM) | 128 µg/mL (≈ 171 µM) | 0.125 µg/mL (≈ 0.167 µM) | > 256 µg/mL | 64 µg/mL (≈ 85.6 µM) | 4 µg/mL (≈ 5.35 µM) | 16 µg/mL (≈ 21.4 µM)
6 | C=CCOC1[C@@H](C)C(=O)O[C@H](CC)[C@@](C)(O)[C@H](O)[C@@H](C)/C(=N/OC/C=C/c2cncnc2)[C@H](C)C[C@@](C)(OC)[C@H](O[C@H]2O[C@H](C)C[C@H](N(C)C)[C@H]2O)[C@H]1C (some centres not stated) | 8 µg/mL (≈ 10.5 µM) | 128 µg/mL (≈ 168 µM) | 32 µg/mL (≈ 41.9 µM) | > 256 µg/mL | 32 µg/mL (≈ 41.9 µM) | 16 µg/mL (≈ 21 µM) | 128 µg/mL (≈ 168 µM)
7 | CC[C@H]1OC(=O)[C@H](C)C(=O)[C@H](C)[C@@H](O[C@H]2O[C@H](C)C[C@H](N(C)C)[C@H]2O)[C@](C)(OC)C[C@@H](C)/C(=N\OC/C=C/c2cncnc2)[C@H](C)[C@@H]2OC(=O)O[C@]12C | ≤ 0.016 µg/mL | 128 µg/mL (≈ 171 µM) | 0.032 µg/mL (≈ 0.0428 µM) | 256 µg/mL (≈ 343 µM) | 0.032 µg/mL (≈ 0.0428 µM) | 0.25 µg/mL (≈ 0.335 µM) | 1 µg/mL (≈ 1.34 µM)
8 | CC[C@H]1OC(=O)[C@H](C)C(=O)[C@H](C)[C@@H](O[C@H]2O[C@H](C)C[C@H](N(C)C)[C@H]2O)[C@](C)(OC)C[C@@H](C)/C(=N\OC/C=C/c2cnc3ccccc3c2)[C@H](C)[C@@H]2OC(=O)O[C@]12C | ≤ 0.016 µg/mL | 32 µg/mL (≈ 40.2 µM) | 0.032 µg/mL (≈ 0.0402 µM) | 64 µg/mL (≈ 80.4 µM) | 0.064 µg/mL (≈ 0.0804 µM) | – | –
9 | CC[C@H]1OC(=O)[C@H](C)C(=O)[C@H](C)[C@@H](O[C@H]2O[C@H](C)C[C@H](N(C)C)[C@H]2O)[C@](C)(OC)C[C@@H](C)/C(=N\OC/C=C/c2cncc3ccccc23)[C@H](C)[C@@H]2OC(=O)O[C@]12C | 0.032 µg/mL (≈ 0.0402 µM) | 64 µg/mL (≈ 80.4 µM) | 0.064 µg/mL (≈ 0.0804 µM) | 256 µg/mL (≈ 322 µM) | 0.5 µg/mL (≈ 0.628 µM) | – | –
10 | CC[C@H]1OC(=O)[C@H](C)C(=O)[C@H](C)[C@@H](O[C@H]2O[C@H](C)C[C@H](N(C)C)[C@H]2O)[C@](C)(OC)C[C@@H](C)/C(=N\OC/C=C/c2ccc(-n3ccnc3)cc2)[C@H](C)[C@@H]2OC(=O)O[C@]12C | ≤ 0.016 µg/mL | 32 µg/mL (≈ 39.5 µM) | 0.125 µg/mL (≈ 0.154 µM) | 64 µg/mL (≈ 78.9 µM) | 0.125 µg/mL (≈ 0.154 µM) | 0.125 µg/mL (≈ 0.154 µM) | 1 µg/mL (≈ 1.23 µM)
